Data published in the kinase profiling compilation of Christmann-Franck et al. (2016).

Key:
Test in all cases: KINOMEscan competition binding
Details in all cases: compound 0.1 µM
[1] = target: ALK (human) (UniProt Q9UM73)
[2] = target: AXL (human) (UniProt P30530)
[3] = target: CAMK1D (human) (UniProt Q8IU85)
[4] = target: CAMK2G (human) (UniProt Q13555)
[5] = target: CLK3 (human) (UniProt P49761)
[6] = target: DMPK (human) (UniProt Q09013)
[7] = system: EGFR (human), P00533 [L858R]
[8] = target: EPHA2 (human) (UniProt P29317)
[9] = target: EPHA3 (human) (UniProt P29320)
[10] = target: ERBB4 (human) (UniProt Q15303)
[11] = target: FGFR1 (human) (UniProt P11362)
[12] = system: FLT3 (human), P36888 [D835H]
[13] = target: GRK4 (human) (UniProt P32298)
[14] = target: HIPK3 (human) (UniProt Q9H422)
[15] = target: IGF1R (human) (UniProt P08069)
[16] = target: IKBKE (human) (UniProt Q14164)
[17] = target: INSR (human) (UniProt P06213)
[18] = target: IRAK3 (human) (UniProt Q9Y616)
[19] = target: JAK2 JH1 catalytic (human) (UniProt O60674)
[20] = target: MAP3K13 (human) (UniProt O43283)
[21] = target: MAP3K5 (human) (UniProt Q99683)
[22] = target: MAPK12 (human) (UniProt P53778)
[23] = target: MET (human) (UniProt P08581)
[24] = target: MYLK2 (human) (UniProt Q9H1R3)
[25] = target: MYLK3 (human) (UniProt Q32MK0)
[26] = target: NEK3 (human) (UniProt P51956)
[27] = target: NEK6 (human) (UniProt Q9HC98)
[28] = target: PHKG2 (human) (UniProt P15735)
[29] = target: PIP5K1A (human) (UniProt Q99755)
[30] = target: PRKACB (human) (UniProt P22694)
[31] = target: PRKD2 (human) (UniProt Q9BZL6)
[32] = target: RIPK4 (human) (UniProt P57078)
[33] = target: RPS6KA4 KD1 (human) (UniProt O75676)
[34] = target: SBK1 (human) (UniProt Q52WX2)
[35] = target: SRPK1 (human) (UniProt Q96SB4)
[36] = target: STK17A (human) (UniProt Q9UEE5)
[37] = target: TAOK1 (human) (UniProt Q7L7X3)
[38] = target: TNIK (human) (UniProt Q9UKE5)
[39] = target: TYK2 JH2 pseudokinase (human) (UniProt P29597)
[40] = target: ULK3 (human) (UniProt Q6PHR2)

EPHA3 (human), sequence (P29320 whole entry, looked up): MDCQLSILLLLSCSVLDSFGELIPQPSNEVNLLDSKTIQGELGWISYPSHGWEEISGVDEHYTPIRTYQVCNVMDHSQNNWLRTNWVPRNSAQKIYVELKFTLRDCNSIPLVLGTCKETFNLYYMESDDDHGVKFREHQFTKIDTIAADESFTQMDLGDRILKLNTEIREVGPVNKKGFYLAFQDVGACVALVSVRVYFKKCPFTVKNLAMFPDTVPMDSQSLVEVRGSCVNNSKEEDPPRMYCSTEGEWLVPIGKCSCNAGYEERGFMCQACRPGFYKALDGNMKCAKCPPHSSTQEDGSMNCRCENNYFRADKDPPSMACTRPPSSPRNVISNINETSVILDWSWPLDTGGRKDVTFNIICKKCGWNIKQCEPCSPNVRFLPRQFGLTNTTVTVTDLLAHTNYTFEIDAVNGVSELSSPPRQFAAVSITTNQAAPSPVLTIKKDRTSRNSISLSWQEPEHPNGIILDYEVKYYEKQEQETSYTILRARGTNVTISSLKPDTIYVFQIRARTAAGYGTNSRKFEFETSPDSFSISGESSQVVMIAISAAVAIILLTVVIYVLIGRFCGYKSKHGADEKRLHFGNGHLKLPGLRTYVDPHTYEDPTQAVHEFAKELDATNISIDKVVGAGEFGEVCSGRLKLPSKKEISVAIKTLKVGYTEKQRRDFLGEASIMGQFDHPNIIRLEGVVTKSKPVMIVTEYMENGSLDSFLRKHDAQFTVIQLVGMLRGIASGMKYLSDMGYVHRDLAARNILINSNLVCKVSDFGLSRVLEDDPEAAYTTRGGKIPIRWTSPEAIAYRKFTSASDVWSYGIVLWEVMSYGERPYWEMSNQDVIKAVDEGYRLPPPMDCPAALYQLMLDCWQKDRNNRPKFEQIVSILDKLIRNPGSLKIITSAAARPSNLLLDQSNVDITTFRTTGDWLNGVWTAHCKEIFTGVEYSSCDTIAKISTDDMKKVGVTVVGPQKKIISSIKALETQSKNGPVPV
RIPK4 (human), sequence (P57078 whole entry, looked up): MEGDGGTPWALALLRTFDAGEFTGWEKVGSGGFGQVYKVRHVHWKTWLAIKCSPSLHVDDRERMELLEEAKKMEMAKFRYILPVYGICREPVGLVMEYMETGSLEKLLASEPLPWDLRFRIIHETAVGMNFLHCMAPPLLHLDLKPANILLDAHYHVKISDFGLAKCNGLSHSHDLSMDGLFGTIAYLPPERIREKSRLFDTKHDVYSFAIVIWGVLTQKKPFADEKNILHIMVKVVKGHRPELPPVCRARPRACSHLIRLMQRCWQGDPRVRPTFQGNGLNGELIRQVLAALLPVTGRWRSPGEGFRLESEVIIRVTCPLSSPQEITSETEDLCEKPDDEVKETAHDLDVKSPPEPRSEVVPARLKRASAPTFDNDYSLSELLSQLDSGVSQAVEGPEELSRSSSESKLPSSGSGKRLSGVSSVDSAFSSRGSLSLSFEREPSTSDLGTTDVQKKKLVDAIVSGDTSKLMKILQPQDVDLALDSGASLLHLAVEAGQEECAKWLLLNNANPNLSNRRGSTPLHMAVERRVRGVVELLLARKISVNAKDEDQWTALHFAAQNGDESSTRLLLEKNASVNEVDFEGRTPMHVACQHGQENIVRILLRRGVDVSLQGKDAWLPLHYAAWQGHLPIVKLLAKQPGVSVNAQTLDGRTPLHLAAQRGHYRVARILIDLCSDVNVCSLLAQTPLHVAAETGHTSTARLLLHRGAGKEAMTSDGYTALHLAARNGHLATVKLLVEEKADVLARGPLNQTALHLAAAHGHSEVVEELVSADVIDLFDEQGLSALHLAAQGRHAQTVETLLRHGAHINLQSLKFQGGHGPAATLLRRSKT
MAP3K13 (human), sequence (O43283 whole entry, looked up): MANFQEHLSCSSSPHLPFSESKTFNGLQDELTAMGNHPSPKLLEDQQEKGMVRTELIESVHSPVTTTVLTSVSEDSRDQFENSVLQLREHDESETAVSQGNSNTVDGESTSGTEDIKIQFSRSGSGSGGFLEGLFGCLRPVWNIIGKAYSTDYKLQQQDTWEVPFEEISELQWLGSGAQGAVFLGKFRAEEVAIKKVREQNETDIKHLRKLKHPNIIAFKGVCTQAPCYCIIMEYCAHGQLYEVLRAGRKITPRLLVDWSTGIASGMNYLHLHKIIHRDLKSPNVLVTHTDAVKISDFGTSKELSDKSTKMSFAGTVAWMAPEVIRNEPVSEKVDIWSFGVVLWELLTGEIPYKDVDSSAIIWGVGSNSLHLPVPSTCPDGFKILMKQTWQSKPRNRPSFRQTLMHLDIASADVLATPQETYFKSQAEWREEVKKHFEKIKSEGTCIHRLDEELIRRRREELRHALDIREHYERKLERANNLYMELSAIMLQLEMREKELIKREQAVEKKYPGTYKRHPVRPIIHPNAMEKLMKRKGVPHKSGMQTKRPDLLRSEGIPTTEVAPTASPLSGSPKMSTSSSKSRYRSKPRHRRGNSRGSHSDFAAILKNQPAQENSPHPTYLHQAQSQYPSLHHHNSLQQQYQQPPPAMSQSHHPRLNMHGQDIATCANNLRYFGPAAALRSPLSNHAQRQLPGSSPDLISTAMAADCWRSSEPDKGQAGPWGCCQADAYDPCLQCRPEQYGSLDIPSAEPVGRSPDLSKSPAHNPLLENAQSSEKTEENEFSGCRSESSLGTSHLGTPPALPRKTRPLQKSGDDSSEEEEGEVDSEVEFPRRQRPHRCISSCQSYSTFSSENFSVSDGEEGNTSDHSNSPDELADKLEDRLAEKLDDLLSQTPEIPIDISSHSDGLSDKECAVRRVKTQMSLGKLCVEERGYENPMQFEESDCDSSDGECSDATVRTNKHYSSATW
CAMK2G (human), sequence (Q13555 whole entry, looked up): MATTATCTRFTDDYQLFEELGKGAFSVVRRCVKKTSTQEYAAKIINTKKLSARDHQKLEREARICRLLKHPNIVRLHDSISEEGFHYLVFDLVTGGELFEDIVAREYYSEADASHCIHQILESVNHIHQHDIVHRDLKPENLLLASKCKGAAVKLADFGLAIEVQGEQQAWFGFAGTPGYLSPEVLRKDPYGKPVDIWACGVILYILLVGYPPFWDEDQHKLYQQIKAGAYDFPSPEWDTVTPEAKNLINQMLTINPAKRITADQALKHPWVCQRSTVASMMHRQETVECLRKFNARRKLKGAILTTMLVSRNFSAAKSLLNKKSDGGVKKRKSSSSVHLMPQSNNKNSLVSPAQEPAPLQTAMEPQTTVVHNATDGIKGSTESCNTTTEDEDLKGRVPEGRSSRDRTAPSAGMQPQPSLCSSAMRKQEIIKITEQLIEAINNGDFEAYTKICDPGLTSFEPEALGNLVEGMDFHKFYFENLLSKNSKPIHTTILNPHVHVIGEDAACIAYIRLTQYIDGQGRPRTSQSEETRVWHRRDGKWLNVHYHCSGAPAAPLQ
MAP3K5 (human), sequence (Q99683 whole entry, looked up): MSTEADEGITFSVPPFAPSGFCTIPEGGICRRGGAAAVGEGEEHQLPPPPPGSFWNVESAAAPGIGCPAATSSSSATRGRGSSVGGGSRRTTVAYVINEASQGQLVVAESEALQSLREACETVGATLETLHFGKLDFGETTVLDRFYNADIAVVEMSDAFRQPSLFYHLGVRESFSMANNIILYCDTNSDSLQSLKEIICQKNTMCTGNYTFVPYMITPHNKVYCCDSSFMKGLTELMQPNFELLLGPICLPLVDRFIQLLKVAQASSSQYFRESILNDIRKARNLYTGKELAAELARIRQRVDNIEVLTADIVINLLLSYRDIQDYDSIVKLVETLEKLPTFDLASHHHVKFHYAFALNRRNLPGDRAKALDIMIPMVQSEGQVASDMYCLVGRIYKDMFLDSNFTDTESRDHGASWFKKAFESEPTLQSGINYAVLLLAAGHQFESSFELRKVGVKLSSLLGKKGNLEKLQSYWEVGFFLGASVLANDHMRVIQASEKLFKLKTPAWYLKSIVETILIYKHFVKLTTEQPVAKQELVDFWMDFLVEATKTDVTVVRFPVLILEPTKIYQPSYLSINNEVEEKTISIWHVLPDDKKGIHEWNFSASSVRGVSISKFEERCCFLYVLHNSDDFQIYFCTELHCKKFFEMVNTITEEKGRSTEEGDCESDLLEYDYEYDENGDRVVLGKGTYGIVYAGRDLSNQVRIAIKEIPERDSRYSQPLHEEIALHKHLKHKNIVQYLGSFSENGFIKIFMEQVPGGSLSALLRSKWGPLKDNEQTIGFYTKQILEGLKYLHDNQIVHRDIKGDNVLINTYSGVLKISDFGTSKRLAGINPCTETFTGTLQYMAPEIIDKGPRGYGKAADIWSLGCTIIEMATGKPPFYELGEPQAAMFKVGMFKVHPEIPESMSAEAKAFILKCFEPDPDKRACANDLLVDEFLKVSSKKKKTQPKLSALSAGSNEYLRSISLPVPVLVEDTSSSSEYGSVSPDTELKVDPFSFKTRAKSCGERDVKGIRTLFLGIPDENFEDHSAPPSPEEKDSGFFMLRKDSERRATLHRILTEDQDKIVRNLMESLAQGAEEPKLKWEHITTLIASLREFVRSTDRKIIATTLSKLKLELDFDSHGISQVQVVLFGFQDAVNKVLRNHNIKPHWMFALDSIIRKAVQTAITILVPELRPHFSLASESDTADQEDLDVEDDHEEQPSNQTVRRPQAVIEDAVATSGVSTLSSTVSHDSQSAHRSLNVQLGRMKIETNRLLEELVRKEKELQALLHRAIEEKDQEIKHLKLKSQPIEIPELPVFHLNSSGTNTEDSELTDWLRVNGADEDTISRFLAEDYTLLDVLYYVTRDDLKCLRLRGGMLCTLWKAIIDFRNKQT
MAPK12 (human), sequence (P53778 whole entry, looked up): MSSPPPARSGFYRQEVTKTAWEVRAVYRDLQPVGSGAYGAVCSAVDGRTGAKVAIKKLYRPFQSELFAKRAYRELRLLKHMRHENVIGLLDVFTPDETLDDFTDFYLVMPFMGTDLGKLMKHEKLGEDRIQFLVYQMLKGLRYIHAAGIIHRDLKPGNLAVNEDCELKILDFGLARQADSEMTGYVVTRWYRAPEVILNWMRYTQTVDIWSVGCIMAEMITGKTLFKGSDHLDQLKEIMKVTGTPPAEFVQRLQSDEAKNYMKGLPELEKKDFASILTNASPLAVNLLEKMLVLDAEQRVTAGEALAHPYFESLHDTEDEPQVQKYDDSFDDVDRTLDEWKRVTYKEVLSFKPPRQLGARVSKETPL

## CCc1ccc(C(=O)Nc2cc(CN3CCN(C)CC3)cc(C(F)(F)F)c2)cc1C#Cc1cnc2ccnn2c1
[1]
  kinase still bound, per cent of control: 100%
[2]
  kinase still bound, per cent of control: 100%
[3]
  kinase still bound, per cent of control: 84%
[4]
  kinase still bound, per cent of control: 79%
[5]
  kinase still bound, per cent of control: 91%
[6]
  kinase still bound, per cent of control: 100%
[7]
  kinase still bound, per cent of control: 100%
[8]
  kinase still bound, per cent of control: 80%
[9]
  kinase still bound, per cent of control: 47%
[10]
  kinase still bound, per cent of control: 100%
[11]
  kinase still bound, per cent of control: 84%
[12]
  kinase still bound, per cent of control: 83%
[13]
  kinase still bound, per cent of control: 97%
[14]
  kinase still bound, per cent of control: 100%
[15]
  kinase still bound, per cent of control: 100%
[16]
  kinase still bound, per cent of control: 100%
[17]
  kinase still bound, per cent of control: 86%
[18]
  kinase still bound, per cent of control: 80%
[19]
  kinase still bound, per cent of control: 100%
[20]
  kinase still bound, per cent of control: 71%
[21]
  kinase still bound, per cent of control: 100%
[22]
  kinase still bound, per cent of control: 72%
[23]
  kinase still bound, per cent of control: 100%
[24]
  kinase still bound, per cent of control: 100%
[25]
  kinase still bound, per cent of control: 100%
[26]
  kinase still bound, per cent of control: 78%
[27]
  kinase still bound, per cent of control: 100%
[28]
  kinase still bound, per cent of control: 66%
[29]
  kinase still bound, per cent of control: 100%
[30]
  kinase still bound, per cent of control: 100%
[31]
  kinase still bound, per cent of control: 100%
[32]
  kinase still bound, per cent of control: 100%
[33]
  kinase still bound, per cent of control: 93%
[34]
  kinase still bound, per cent of control: 73%
[35]
  kinase still bound, per cent of control: 100%
[36]
  kinase still bound, per cent of control: 100%
[37]
  kinase still bound, per cent of control: 100%
[38]
  kinase still bound, per cent of control: 84%
[39]
  kinase still bound, per cent of control: 100%
[40]
  kinase still bound, per cent of control: 100%
